Measurements reported in PubChem BioAssay (NCI).
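All cell lines were grown in 96-well plates and treated with compound for 48 hours. TGI: concentration producing complete growth inhibition.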

Key:
Assay in all cases: NCI tumour cell line growth inhibition, 48 h
[1] = tested on: CAKI-1 renal
[2] = tested on: UO-31 renal
[3] = tested on: MOLT-4 leukemia
[4] = tested on: RPMI-8226 leukemia
[5] = tested on: SN12K1 renal
[6] = tested on: NCI-H522 lung
[7] = tested on: NCI-H226 lung
[8] = tested on: K-562 leukemia
[9] = tested on: DMS 114 small cell lung
[10] = tested on: SF-539 CNS
[11] = tested on: KM12 colon
[12] = tested on: OVCAR-3 ovarian
[13] = tested on: EKVX NSCLC
[14] = tested on: CCRF-CEM leukemia
[15] = tested on: HT29 colon
[16] = tested on: OVCAR-4 ovarian
[17] = tested on: M19-MEL melanoma
[18] = tested on: MCF7 breast
[19] = tested on: A498 renal
[20] = tested on: UACC-257 melanoma
[21] = tested on: SK-MEL-5 melanoma
[22] = tested on: HCT-116 colon
[23] = tested on: XF 498 CNS
[24] = tested on: HOP-62 NSCLC
[25] = tested on: HL-60(TB) leukemia
[26] = tested on: RXF 393 renal
[27] = tested on: A549 NSCLC
[28] = tested on: HCC-2998 colon
[29] = tested on: SNB-75 CNS
[30] = tested on: SK-MEL-28 melanoma
[31] = tested on: LOX IMVI melanoma
[32] = tested on: OVCAR-5 ovarian
[33] = tested on: COLO 205 colon
[34] = tested on: SK-OV-3 ovarian
[35] = tested on: HOP-92 NSCLC
[36] = tested on: SNB-78 CNS
[37] = tested on: KM20L2 colon
[38] = tested on: NCI-H23 lung
[39] = tested on: SF-295 CNS
[40] = tested on: DMS 273 small cell lung
[41] = tested on: UACC-62 melanoma
[42] = tested on: NCI-H460 lung
[43] = tested on: SW-620 colon
[44] = tested on: SN12C renal
[45] = tested on: SK-MEL-2 melanoma
[46] = tested on: OVCAR-8 ovarian
[47] = tested on: P388/ADR leukemia
[48] = tested on: SNB-19 CNS
[49] = tested on: HCT-15 colon
[50] = tested on: NCI/ADR-RES ovarian
[51] = tested on: DLD-1 colon
[52] = tested on: P388 leukemia
[53] = tested on: SF-268 CNS
[54] = tested on: IGROV1 ovarian
[55] = tested on: MALME-3M melanoma
[56] = tested on: U251 CNS
[57] = tested on: HOP-18 NSCLC

For `CCOC(=O)c1c(C)c2c(n1C)CCc1cn[nH]c1-2`, the TGI [1] was greater than 100 µM, the TGI [2] was greater than 100 µM and the TGI [3] was greater than 100 µM. For the same compound, the TGI [4] was greater than 100 µM, the TGI [5] was greater than 100 µM and the TGI [6] was greater than 100 µM. It also gave a TGI [7] greater than 100 µM, a TGI [8] greater than 100 µM and a TGI [9] greater than 100 µM. For the same compound, the TGI [10] was greater than 100 µM, the TGI [11] was greater than 100 µM and the TGI [12] was greater than 100 µM. The TGI [13] was greater than 100 µM, the TGI [14] was greater than 100 µM and the TGI [15] was greater than 100 µM. It also gave a TGI [16] greater than 100 µM, a TGI [17] greater than 100 µM and a TGI [18] greater than 100 µM. It also gave a TGI [19] greater than 100 µM, a TGI [20] greater than 100 µM and a TGI [21] greater than 100 µM. The TGI [22] was greater than 100 µM, the TGI [23] was greater than 100 µM and the TGI [24] was greater than 100 µM. It also gave a TGI [25] greater than 100 µM, a TGI [26] greater than 100 µM and a TGI [27] greater than 100 µM. For the same compound, the TGI [28] was greater than 100 µM, the TGI [29] was greater than 100 µM and the TGI [30] was greater than 100 µM. The TGI [31] was greater than 100 µM, the TGI [32] was greater than 100 µM and the TGI [33] was greater than 100 µM. For the same compound, the TGI [34] was greater than 100 µM, the TGI [35] was greater than 100 µM and the TGI [36] was greater than 100 µM. The TGI [37] was greater than 100 µM, the TGI [38] was greater than 100 µM and the TGI [39] was greater than 100 µM. It also gave a TGI [40] greater than 100 µM, a TGI [41] greater than 100 µM and a TGI [42] greater than 100 µM. The TGI [43] was greater than 100 µM, the TGI [44] was greater than 100 µM and the TGI [45] was greater than 100 µM. It also gave a TGI [46] greater than 100 µM, a TGI [47] greater than 31.6 µM and a TGI [48] greater than 100 µM. For the same compound, the TGI [49] was greater than 100 µM, the TGI [50] was greater than 100 µM and the TGI [51] was greater than 100 µM. It also gave a TGI [52] greater than 100 µM, a TGI [53] greater than 100 µM and a TGI [54] greater than 100 µM. It also gave a TGI [55] greater than 100 µM, a TGI [56] greater than 100 µM and a TGI [57] greater than 100 µM.
